Experimental data reported in patent US10112899B2 (ViiV HEALTHCARE UK LIMITED, priority 2014, dated 2018).

system: HIV in the HTLV-1 transformed cell line MT-4; assay: organism not typed; assay type: cell-based; settings: MT4, 96 h, MT-4 cells; luciferase/cell titer glo readout after 96 hours; 10 point dose response

| Structure (SMILES) | IC50 |
| --- | --- |
| COc1cccc(C(=O)N2Cc3c(C)c(-c4cc(F)c5c(c4C)CCCO5)c([C@H](OC(C)(C)C)C(=O)O)c(C)c3C2)c1F (atropisomer, axis not shown; (M)) [Example 148, (S)-2-(tert-butoxy)-2-((M)-2-(2-fluoro-3-methoxybenzoyl)-6-(8-fluoro-5-methylchroman-6-yl)-4,7-dimethylisoindolin-5-yl)acetic acid] | 9 nM |
| Cc1cccc(C(=O)N2Cc3c(C)c(-c4cc(F)c5c(c4C)CCCO5)c([C@H](OC(C)(C)C)C(=O)O)c(C)c3C2)c1 (atropisomer, axis not shown; (M)) [Example 149, (S)-2-(tert-butoxy)-2-((M)-6-(8-fluoro-5-methylchroman-6-yl)-4,7-dimethyl-2-(3-methylbenzoyl)isoindolin-5-yl)acetic acid] | 2 nM |
| COc1ccc(F)cc1C(=O)N1Cc2c(C)c(-c3cc(F)c4c(c3C)CCCO4)c([C@H](OC(C)(C)C)C(=O)O)c(C)c2C1 (atropisomer, axis not shown; (M)) [Example 150, (S)-2-(tert-butoxy)-2-((M)-2-(5-fluoro-2-methoxybenzoyl)-6-(8-fluoro-5-methylchroman-6-yl)-4,7-dimethylisoindolin-5-yl)acetic acid] | 4 nM |
| Cc1c(-c2c(C)c3c(c(C)c2[C@H](OC(C)(C)C)C(=O)O)CN(C(=O)c2cccc4sccc24)C3)cc(F)c2c1CCCO2 (atropisomer, axis not shown; (M)) [Example 151, (S)-2-((M)-2-(benzo[b]thiophene-4-carbonyl)-6-(8-fluoro-5-methylchroman-6-yl)-4,7-dimethylisoindolin-5-yl)-2-(tert-butoxy)acetic acid] | 5 nM |
| Cc1c(-c2c(C)c3c(c(C)c2[C@H](OC(C)(C)C)C(=O)O)CN(C(=O)c2cccc4c2OCC4)C3)cc(F)c2c1CCCO2 (atropisomer, axis not shown; (M)) [Example 152, (S)-2-(tert-butoxy)-2-((M)-2-(2,3-dihydrobenzofuran-7-carbonyl)-6-(8-fluoro-5-methylchroman-6-yl)-4,7-dimethylisoindolin-5-yl)acetic acid] | 2 nM |
| Cc1c(-c2c(C)c3c(c(C)c2[C@H](OC(C)(C)C)C(=O)O)CN(C(=O)c2cccc4c2OCCO4)C3)cc(F)c2c1CCCO2 (atropisomer, axis not shown; (M)) [Example 153, (S)-2-(tert-butoxy)-2-((M)-2-(2,3-dihydrobenzo[b][1,4]dioxine-5-carbonyl)-6-(8-fluoro-5-methylchroman-6-yl)-4,7-dimethylisoindolin-5-yl)acetic acid] | 4 nM |
| Cc1c(-c2c(C)c3c(c(C)c2[C@H](OC(C)(C)C)C(=O)O)CN(C(=O)c2ccc4c(cnn4C)c2)C3)cc(F)c2c1CCCO2 (atropisomer, axis not shown; (M)) [Example 154, (S)-2-(tert-butoxy)-2-((M)-6-(8-fluoro-5-methylchroman-6-yl)-4,7-dimethyl-2-(1-methyl-1H-indazole-5-carbonyl)isoindolin-5-yl)acetic acid] | 8 nM |
| Cc1c(-c2c(C)c3c(c(C)c2[C@H](OC(C)(C)C)C(=O)O)CN(C(=O)c2ccccc2C(C)(C)C)C3)cc(F)c2c1CCCO2 (atropisomer, axis not shown; (M)) [Example 155, (S)-2-(tert-butoxy)-2-(2-(2-(tert-butyl)benzoyl)-6-((M)-8-fluoro-5-methylchroman-6-yl)-4,7-dimethylisoindolin-5-yl)acetic acid] | 48 nM |
| COc1cc(C(=O)N2Cc3c(C)c(-c4cc(F)c5c(c4C)CCCO5)c([C@H](OC(C)(C)C)C(=O)O)c(C)c3C2)ccc1C (atropisomer, axis not shown; (M)) [Example 156, (S)-2-(tert-butoxy)-2-(6-((M)-8-fluoro-5-methylchroman-6-yl)-2-(3-methoxy-4-methylbenzoyl)-4,7-dimethylisoindolin-5-yl)acetic acid] | 3 nM |
| Cc1ccc(C)c(C(=O)N2Cc3c(C)c(-c4cc(F)c5c(c4C)CCCO5)c([C@H](OC(C)(C)C)C(=O)O)c(C)c3C2)c1 (atropisomer, axis not shown; (M)) [Example 157, (S)-2-(tert-butoxy)-2-(2-(2,5-dimethylbenzoyl)-6-((M)-8-fluoro-5-methylchroman-6-yl)-4,7-dimethylisoindolin-5-yl)acetic acid] | 3 nM |
| Cc1c(-c2c(C)c3c(c(C)c2[C@H](OC(C)(C)C)C(=O)O)CN(C(=O)c2ccccc2)C3)cc(F)c2c1CCCO2 (atropisomer, axis not shown; (M)) [Example 158, (S)-2-(2-benzoyl-6-((M)-8-fluoro-5-methylchroman-6-yl)-4,7-dimethylisoindolin-5-yl)-2-(tert-butoxy)acetic acid] | 2 nM |
| COc1cccc(C(=O)N2Cc3c(C)c(-c4cc(F)c5c(c4C)CCCO5)c([C@H](OC(C)(C)C)C(=O)O)c(C)c3C2)c1 (atropisomer, axis not shown; (M)) [Example 159, (S)-2-(tert-butoxy)-2-(6-((M)-8-fluoro-5-methylchroman-6-yl)-2-(3-methoxybenzoyl)-4,7-dimethylisoindolin-5-yl)acetic acid] | 2 nM |
| COc1ccc(C)c(C(=O)N2Cc3c(C)c(-c4cc(F)c5c(c4C)CCCO5)c([C@H](OC(C)(C)C)C(=O)O)c(C)c3C2)c1 (atropisomer, axis not shown; (M)) [Example 160, (S)-2-(tert-butoxy)-2-(6-((M)-8-fluoro-5-methylchroman-6-yl)-2-(5-methoxy-2-methylbenzoyl)-4,7-dimethylisoindolin-5-yl)acetic acid] | 4 nM |
| Cc1c(-c2c(C)c3c(c(C)c2[C@H](OC(C)(C)C)C(=O)O)CN(C(=O)c2cccc4c2CCC4)C3)cc(F)c2c1CCCO2 (atropisomer, axis not shown; (M)) [Example 161, (S)-2-(tert-butoxy)-2-(2-(2,3-dihydro-1H-indene-4-carbonyl)-6-((M)-8-fluoro-5-methylchroman-6-yl)-4,7-dimethylisoindolin-5-yl)acetic acid] | 3 nM |
| Cc1c(-c2c(C)c3c(c(C)c2[C@H](OC(C)(C)C)C(=O)O)CN(C(=O)c2cccc4c2OC(F)(F)O4)C3)cc(F)c2c1CCCO2 (atropisomer, axis not shown; (M)) [Example 162, (S)-2-(tert-butoxy)-2-((M)-2-(2,2-difluorobenzo[d][1,3]dioxole-4-carbonyl)-6-(8-fluoro-5-methylchroman-6-yl)-4,7-dimethylisoindolin-5-yl)acetic acid] | 2 nM |
| Cc1c(-c2c(C)c3c(c(C)c2[C@H](OC(C)(C)C)C(=O)O)CN(C(=O)c2cccc4ccccc24)C3)cc(F)c2c1CCCO2 (atropisomer, axis not shown; (M)) [Example 168, (S)-2-((M)-2-(1-naphthoyl)-6-(8-fluoro-5-methylchroman-6-yl)-4,7-dimethylisoindolin-5-yl)-2-(tert-butoxy)acetic acid] | 11 nM |
| Cc1c(-c2c(C)c3c(c(C)c2[C@H](OC(C)(C)C)C(=O)O)CN(C(=O)c2cccc4ccoc24)C3)cc(F)c2c1CCCO2 (atropisomer, axis not shown; (M)) [Example 169, (S)-2-((M)-2-(benzofuran-7-carbonyl)-6-(8-fluoro-5-methylchroman-6-yl)-4,7-dimethylisoindolin-5-yl)-2-(tert-butoxy)acetic acid] | 2 nM |
| Cc1c(-c2c(C)c3c(c(C)c2[C@H](OC(C)(C)C)C(=O)O)CN(C(=O)c2cc(F)cc(F)c2)C3)cc(F)c2c1CCCO2 (atropisomer, axis not shown; (M)) [Example 170, (S)-2-(tert-butoxy)-2-((M)-2-(3,5-difluorobenzoyl)-6-(8-fluoro-5-methylchroman-6-yl)-4,7-dimethylisoindolin-5-yl)acetic acid] | 2 nM |
| Cc1c(-c2c(C)c3c(c(C)c2[C@H](OC(C)(C)C)C(=O)O)CN(C(=O)c2ccc(F)c(Cl)c2)C3)cc(F)c2c1CCCO2 (atropisomer, axis not shown; (M)) [Example 171, (S)-2-(tert-butoxy)-2-((M)-2-(3-chloro-4-fluorobenzoyl)-6-(8-fluoro-5-methylchroman-6-yl)-4,7-dimethylisoindolin-5-yl)acetic acid] | 2 nM |
| Cc1c(Cl)cccc1C(=O)N1Cc2c(C)c(-c3cc(F)c4c(c3C)CCCO4)c([C@H](OC(C)(C)C)C(=O)O)c(C)c2C1 (atropisomer, axis not shown; (M)) [Example 172, (S)-2-(tert-butoxy)-2-((M)-2-(3-chloro-2-methylbenzoyl)-6-(8-fluoro-5-methylchroman-6-yl)-4,7-dimethylisoindolin-5-yl)acetic acid] | 7 nM |
| Cc1c(-c2c(C)c3c(c(C)c2[C@H](OC(C)(C)C)C(=O)O)CN(C(=O)c2cc(F)c(F)c(F)c2)C3)cc(F)c2c1CCCO2 (atropisomer, axis not shown; (M)) [Example 173, (S)-2-(tert-butoxy)-2-((M)-6-(8-fluoro-5-methylchroman-6-yl)-4,7-dimethyl-2-(3,4,5-trifluorobenzoyl)isoindolin-5-yl)acetic acid] | 3 nM |
| Cc1c(-c2c(C)c3c(c(C)c2[C@H](OC(C)(C)C)C(=O)O)CN(C(=O)c2ccc(F)cc2)C3)cc(F)c2c1CCCO2 (atropisomer, axis not shown; (M)) [Example 174, (S)-2-(tert-butoxy)-2-((M)-6-(8-fluoro-5-methylchroman-6-yl)-2-(4-fluorobenzoyl)-4,7-dimethylisoindolin-5-yl)acetic acid] | 4 nM |
| Cc1c(-c2c(C)c3c(c(C)c2[C@H](OC(C)(C)C)C(=O)O)CN(C(=O)c2cc(F)c(Cl)c(F)c2)C3)cc(F)c2c1CCCO2 (atropisomer, axis not shown; (M)) [Example 175, (S)-2-(tert-butoxy)-2-((M)-2-(4-chloro-3,5-difluorobenzoyl)-6-(8-fluoro-5-methylchroman-6-yl)-4,7-dimethylisoindolin-5-yl)acetic acid] | 5 nM |
| Cc1c(-c2c(C)c3c(c(C)c2[C@H](OC(C)(C)C)C(=O)O)CN(C(=O)c2cccc(F)c2F)C3)cc(F)c2c1CCCO2 (atropisomer, axis not shown; (M)) [Example 176, (S)-2-(tert-butoxy)-2-((M)-2-(2,3-difluorobenzoyl)-6-(8-fluoro-5-methylchroman-6-yl)-4,7-dimethylisoindolin-5-yl)acetic acid] | 4 nM |
